# Tests used:
# HDAC2 = HDAC2 (Homo sapiens, UniProt Q92769); test: ELISA-based HDAC activity assay, HDAC2
# HDAC6 = target: T1, HDAC6 (Homo sapiens, UniProt Q9UBN7); test: ELISA-based HDAC activity assay, HDAC6; conditions: for HDAC6 fold selectivity HDAC1: HDAC6 over HDAC1; for HDAC6 fold selectivity HDAC1 / HDAC6 fold selectivity HDAC2 / HDAC6 fold selectivity HDAC3: calculated from IC50 values; for HDAC6 fold selectivity HDAC2: HDAC6 over HDAC2; for HDAC6 fold selectivity HDAC3: HDAC6 over HDAC3
# T1 sequence (Q9UBN7 1-1215): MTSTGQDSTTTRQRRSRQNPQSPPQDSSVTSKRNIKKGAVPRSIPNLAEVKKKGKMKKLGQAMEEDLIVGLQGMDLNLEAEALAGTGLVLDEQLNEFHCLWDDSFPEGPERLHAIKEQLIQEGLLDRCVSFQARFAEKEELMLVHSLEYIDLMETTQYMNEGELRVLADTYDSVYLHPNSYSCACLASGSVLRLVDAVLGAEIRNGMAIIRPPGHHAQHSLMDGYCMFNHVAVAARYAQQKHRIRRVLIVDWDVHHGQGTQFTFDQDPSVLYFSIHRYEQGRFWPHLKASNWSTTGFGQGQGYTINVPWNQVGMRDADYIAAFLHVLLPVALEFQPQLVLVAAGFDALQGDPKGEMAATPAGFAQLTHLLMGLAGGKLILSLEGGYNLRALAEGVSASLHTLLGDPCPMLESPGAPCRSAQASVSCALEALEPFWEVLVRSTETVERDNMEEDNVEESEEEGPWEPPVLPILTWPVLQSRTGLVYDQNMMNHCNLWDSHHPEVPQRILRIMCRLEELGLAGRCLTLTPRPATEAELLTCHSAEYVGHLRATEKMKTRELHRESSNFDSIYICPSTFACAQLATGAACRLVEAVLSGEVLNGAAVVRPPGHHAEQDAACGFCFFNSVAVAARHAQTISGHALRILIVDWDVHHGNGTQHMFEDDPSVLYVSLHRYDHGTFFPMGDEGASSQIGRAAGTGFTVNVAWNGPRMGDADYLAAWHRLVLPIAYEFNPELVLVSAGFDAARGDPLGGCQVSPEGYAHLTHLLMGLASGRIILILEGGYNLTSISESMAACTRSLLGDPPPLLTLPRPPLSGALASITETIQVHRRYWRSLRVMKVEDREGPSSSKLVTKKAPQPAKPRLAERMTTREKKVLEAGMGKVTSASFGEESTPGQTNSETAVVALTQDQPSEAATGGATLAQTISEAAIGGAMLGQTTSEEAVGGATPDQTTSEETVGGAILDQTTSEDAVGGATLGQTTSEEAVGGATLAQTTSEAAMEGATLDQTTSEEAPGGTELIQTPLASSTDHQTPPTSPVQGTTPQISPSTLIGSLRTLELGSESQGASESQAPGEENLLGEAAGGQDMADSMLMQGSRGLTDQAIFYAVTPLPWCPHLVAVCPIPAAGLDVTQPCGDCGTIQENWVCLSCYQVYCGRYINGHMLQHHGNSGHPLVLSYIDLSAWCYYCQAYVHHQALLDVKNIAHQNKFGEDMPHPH
# HDAC1 = HDAC1 (Homo sapiens, UniProt Q13547); test: ELISA-based HDAC activity assay, HDAC1
# Chain of HDAC1 (Q13547 whole entry): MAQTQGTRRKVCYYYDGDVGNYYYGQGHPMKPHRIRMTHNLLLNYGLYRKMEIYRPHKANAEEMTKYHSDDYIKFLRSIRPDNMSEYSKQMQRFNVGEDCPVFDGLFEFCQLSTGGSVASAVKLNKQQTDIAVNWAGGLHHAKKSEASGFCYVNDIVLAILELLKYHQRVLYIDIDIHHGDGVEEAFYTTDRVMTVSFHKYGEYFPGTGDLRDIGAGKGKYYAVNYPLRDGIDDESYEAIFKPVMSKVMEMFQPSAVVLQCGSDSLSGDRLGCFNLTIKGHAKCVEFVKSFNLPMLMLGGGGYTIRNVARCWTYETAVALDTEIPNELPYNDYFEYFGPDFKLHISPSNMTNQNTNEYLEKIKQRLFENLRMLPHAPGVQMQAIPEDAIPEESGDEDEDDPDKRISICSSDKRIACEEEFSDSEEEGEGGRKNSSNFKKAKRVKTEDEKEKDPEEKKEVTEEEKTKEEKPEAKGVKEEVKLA
# HDAC3 = HDAC3 (Homo sapiens, UniProt O15379); test: ELISA-based HDAC activity assay, HDAC3
# Chain of HDAC3 (O15379 whole entry): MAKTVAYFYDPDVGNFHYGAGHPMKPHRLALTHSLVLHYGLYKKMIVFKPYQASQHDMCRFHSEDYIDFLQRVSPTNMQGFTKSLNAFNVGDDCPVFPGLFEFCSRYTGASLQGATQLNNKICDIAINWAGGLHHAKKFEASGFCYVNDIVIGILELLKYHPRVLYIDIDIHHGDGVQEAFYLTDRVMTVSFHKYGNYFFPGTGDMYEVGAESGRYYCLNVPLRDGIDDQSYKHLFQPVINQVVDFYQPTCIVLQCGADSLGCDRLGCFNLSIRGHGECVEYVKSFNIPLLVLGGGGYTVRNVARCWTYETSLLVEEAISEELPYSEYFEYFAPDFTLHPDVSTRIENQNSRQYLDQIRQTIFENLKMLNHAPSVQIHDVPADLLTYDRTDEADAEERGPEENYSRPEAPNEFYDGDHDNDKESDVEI
# Chain of HDAC3 (Q9Y618 whole entry partner): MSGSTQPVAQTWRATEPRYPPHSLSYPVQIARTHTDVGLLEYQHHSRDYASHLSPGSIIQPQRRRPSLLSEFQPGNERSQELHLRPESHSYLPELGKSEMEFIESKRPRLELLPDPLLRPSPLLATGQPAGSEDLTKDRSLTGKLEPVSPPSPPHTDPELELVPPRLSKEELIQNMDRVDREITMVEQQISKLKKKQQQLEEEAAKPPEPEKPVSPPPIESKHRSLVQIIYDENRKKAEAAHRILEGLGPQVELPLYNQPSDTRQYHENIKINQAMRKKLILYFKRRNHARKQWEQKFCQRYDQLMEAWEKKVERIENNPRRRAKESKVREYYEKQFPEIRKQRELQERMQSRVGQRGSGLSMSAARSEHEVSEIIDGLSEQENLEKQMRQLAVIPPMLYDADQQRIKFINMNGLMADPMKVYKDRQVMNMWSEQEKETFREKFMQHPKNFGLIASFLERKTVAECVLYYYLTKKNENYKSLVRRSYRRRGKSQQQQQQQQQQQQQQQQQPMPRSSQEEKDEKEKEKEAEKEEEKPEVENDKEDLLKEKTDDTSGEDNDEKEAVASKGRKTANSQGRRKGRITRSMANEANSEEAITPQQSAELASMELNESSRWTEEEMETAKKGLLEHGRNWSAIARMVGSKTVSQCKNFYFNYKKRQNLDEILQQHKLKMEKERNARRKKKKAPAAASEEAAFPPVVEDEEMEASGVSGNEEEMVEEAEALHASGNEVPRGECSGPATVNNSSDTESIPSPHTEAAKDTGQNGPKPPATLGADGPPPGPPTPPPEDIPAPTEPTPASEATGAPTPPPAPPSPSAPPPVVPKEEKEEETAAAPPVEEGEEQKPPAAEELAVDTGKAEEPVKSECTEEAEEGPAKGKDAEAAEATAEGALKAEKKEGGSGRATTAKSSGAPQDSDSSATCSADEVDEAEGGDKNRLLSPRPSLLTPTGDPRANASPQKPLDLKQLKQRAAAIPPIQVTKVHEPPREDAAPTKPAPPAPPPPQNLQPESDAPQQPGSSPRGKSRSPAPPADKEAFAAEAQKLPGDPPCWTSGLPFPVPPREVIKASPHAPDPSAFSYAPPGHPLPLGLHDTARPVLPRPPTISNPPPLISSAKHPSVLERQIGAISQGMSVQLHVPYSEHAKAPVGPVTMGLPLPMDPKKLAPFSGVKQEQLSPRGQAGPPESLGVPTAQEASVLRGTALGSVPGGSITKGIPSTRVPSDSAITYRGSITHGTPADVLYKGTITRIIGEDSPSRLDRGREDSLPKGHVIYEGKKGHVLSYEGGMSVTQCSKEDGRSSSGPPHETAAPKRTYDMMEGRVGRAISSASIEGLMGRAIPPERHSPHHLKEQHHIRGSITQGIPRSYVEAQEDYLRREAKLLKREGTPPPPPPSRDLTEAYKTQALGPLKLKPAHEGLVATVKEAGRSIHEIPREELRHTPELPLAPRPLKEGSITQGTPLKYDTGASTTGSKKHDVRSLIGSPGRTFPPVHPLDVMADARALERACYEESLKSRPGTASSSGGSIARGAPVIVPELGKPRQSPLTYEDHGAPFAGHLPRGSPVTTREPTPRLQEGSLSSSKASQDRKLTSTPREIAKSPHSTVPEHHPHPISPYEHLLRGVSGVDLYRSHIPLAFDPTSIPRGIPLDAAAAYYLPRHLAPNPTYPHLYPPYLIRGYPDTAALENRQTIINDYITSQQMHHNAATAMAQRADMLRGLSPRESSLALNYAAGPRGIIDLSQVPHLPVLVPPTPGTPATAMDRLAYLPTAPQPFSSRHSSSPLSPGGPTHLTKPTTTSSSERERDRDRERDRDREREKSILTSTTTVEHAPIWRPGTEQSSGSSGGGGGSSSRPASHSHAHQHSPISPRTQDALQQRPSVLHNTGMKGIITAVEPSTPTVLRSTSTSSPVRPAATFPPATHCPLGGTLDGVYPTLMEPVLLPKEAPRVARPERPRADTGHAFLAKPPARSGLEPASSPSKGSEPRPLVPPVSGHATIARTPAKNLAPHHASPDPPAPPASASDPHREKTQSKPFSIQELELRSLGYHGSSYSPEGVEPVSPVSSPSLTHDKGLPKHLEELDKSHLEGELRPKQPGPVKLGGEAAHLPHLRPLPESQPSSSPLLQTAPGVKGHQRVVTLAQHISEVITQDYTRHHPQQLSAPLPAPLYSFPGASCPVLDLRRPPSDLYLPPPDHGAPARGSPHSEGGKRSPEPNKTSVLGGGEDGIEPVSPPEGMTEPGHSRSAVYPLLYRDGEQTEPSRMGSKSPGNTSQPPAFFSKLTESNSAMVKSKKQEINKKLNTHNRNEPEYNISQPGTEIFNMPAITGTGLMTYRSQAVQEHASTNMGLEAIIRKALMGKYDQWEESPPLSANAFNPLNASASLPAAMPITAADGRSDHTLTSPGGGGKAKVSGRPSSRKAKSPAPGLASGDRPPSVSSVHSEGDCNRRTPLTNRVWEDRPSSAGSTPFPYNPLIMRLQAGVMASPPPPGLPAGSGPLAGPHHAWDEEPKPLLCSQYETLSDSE
# [1] = system: HDAC proteins in HeLa cell lysates; test: Global HDAC inhibition with HeLa cell lysates (HDAC-Glo I/II substrate); type: biochemical; conditions: for Deacetylase activity (%): Hela Lysate; for IC50: HeLa cell lysates
# Experimental: HDAC activity was measured using the commercially available HDAC-Glo™ I/II substrate (Promega).
# Lysates were prepared according to the reported procedure.^28 HeLa-S3 cells (purchased from Biovest) were lysed in lysis buffer (1×10^9 cells in 10 mL lysis buffer; 50 mM Tris-HCl, pH 8.0, 10% glycerol, 150 mM NaCl, 0.5% Triton X-100, and 1× protease inhibitor cocktail (GenDEPOT)) with rotation at 4° C. for 30 min. Cell debris was removed by centrifugation at 12000 rpm at 4° C. for 30 min. Protein concentration of the supernatant was determined using Bio-Rad protein assay (BioRad, Bradford reagent). Lysates were stored at −80° C.
# To measure global HDAC inhibition, HeLa cell lysates (1 μg total protein) were mixed with HDAC-Glo™ buffer in polystyrene 96-well half area white plate (Corning) to a final volume of 12 μL, followed by addition of inhibitors in DMSO (0.5 μL) and incubation for 15 min at room temperature without rocking. An uninhibited control reaction was also included that contained DMSO (0.5 μL). Finally, deacetylase activity was measured using the HDAC-Glo™ assay kit (Promega) as per the manufacturer's protocol. Specifically, the HDAC-Glo™ substrate (1 mL) and developer ([…]) were first premixed to form the HDAC-Glo™ reagents. Then, to monitor deacetylase activity, HDAC-Glo™ reagent (5 μL) and HDAC-Glo™ buffer (7.5 μL) were added to each well (25 μL total volume) and incubated for 35 min at room temperature without rocking. The deacetylase activity was measured as luminescent signal using a GeniosPlus Fluorimeter (Tecan) at optimal gain. The concentrations of inhibitors reported in the dose-dependent studies (Table 2) are final concentrations after addition of HDAC-Glo™ reagent HDAC-Glo™ buffer.
# [2] = read-out: Deacetylase activity (%) HDAC2
# [3] = read-out: Deacetylase activity (%) HDAC6
# [4] = potency (IC50) to HDAC1, 2, and 3, range over HDAC1, 2, and 3
# [5] = read-out: Deacetylase activity (%) HDAC1
# [6] = read-out: Deacetylase activity (%) HDAC3
# Chain of HDAC2 (Q92769 whole entry): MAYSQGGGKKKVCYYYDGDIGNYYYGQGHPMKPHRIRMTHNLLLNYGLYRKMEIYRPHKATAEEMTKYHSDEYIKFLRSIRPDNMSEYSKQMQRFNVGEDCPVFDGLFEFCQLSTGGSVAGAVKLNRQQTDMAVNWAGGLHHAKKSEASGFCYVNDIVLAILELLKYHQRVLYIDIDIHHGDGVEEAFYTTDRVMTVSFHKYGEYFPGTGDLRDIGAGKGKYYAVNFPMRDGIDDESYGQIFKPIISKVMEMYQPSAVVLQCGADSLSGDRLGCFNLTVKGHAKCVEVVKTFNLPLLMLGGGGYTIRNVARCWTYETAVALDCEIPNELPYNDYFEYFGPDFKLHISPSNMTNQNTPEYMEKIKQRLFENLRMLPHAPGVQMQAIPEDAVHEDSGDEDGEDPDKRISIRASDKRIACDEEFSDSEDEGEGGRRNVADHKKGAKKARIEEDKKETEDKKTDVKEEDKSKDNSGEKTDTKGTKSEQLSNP
smiles,measurement,setting,value
"CCC(CCCC(=O)Nc1ccccc1)CCC(=O)NO (racemic) [Compound 1b, 4-ethyl-N^1-hydroxy-N^8-phenyloctanediamide]",IC50,HDAC2,4.9 µM
same,activity at 1 µM,HDAC2; [2],86 ± 2%
same,activity at 2 µM,HDAC2; [2],69 ± 1%
same,activity at 4 µM,HDAC2; [2],59 ± 2%
same,activity at 8 µM,HDAC2; [2],34 ± 7%
same,activity at 16 µM,HDAC2; [2],23 ± 2%
same,IC50,HDAC6,0.16 ± 0.01 µM
same,HDAC6 fold selectivity HDAC1,HDAC6,28 fold
same,HDAC6 fold selectivity HDAC2,HDAC6,31 fold
same,HDAC6 fold selectivity HDAC3,HDAC6,38 fold
same,activity at 0.05 µM,HDAC6; [3],74 ± 7%
same,activity at 0.1 µM,HDAC6; [3],61 ± 6%
same,activity at 0.2 µM,HDAC6; [3],43 ± 5%
same,activity at 0.4 µM,HDAC6; [3],33 ± 3%
same,activity at […],HDAC6; [3],80 ± 8%
same,IC50,HDAC1; IC50 values (nM) HDAC1,4400 nM
same,IC50,HDAC1; [4],4400 to 6000 nM
same,activity at 1 µM,HDAC1; [5],81 ± 3%
same,activity at 2 µM,HDAC1; [5],68 ± 5%
same,activity at 4 µM,HDAC1; [5],58 ± 1%
same,activity at 8 µM,HDAC1; [5],32 ± 4%
same,activity at 16 µM,HDAC1; [5],19 ± 1%
same,IC50,HDAC3,6 µM
same,activity at 1 µM,HDAC3; [6],83 ± 7%
same,activity at 2 µM,HDAC3; [6],71 ± 4%
same,activity at 4 µM,HDAC3; [6],64 ± 2%
same,activity at 8 µM,HDAC3; [6],52 ± 6%
same,activity at 16 µM,HDAC3; [6],17 ± 8%
same,Deacetylase activity (%),[1]; 2.4 × 10^−5 M,31 ± 2%
same,Deacetylase activity (%),[1]; 3.0 × 10^−6 M,92 ± 1%
same,Deacetylase activity (%),[1]; 4.8 × 10^−5 M,12 ± 1%
same,Deacetylase activity (%),[1]; 6.0 × 10^−6 M,82 ± 7%
same,IC50,[1],14 ± 1 µM
same,Deacetylase activity (%),[1]; […] 10^−5 M,53 ± 3%
"CCCCCCC(CCCC(=O)Nc1ccccc1)CCC(=O)NO (racemic) [Compound 1d, 4-hexyl-N^1-hydroxy-N^8-phenyloctanediamide]",IC50,HDAC2,38 µM
same,activity at 1.25 µM,HDAC2; [2],101 ± 2%
same,activity at 10 µM,HDAC2; [2],79 ± 6%
same,activity at 20 µM,HDAC2; [2],73 ± 2%
same,activity at 40 µM,HDAC2; [2],46 ± 6%
same,activity at 80 µM,HDAC2; [2],31 ± 2%
same,activity at 160 µM,HDAC2; [2],16 ± 1%
same,IC50,HDAC6,0.14 ± 0.01 µM
same,HDAC6 fold selectivity HDAC1,HDAC6,250 fold
same,HDAC6 fold selectivity HDAC2,HDAC6,270 fold
same,HDAC6 fold selectivity HDAC3,HDAC6,210 fold
same,activity at 0.05 µM,HDAC6; [3],75 ± 6%
same,activity at 0.1 µM,HDAC6; [3],56 ± 4%
same,activity at 0.2 µM,HDAC6; [3],42 ± 4%
same,activity at 0.4 µM,HDAC6; [3],27 ± 2%
same,activity at 1.25 µM,HDAC6; [3],21 ± 2%
same,activity at […],HDAC6; [3],77 ± 9%
same,IC50,HDAC1; IC50 values (nM) HDAC1,35000 nM
same,IC50,HDAC1; [4],30000 to 38000 nM
same,activity at 1.25 µM,HDAC1; [5],97 ± 3%
same,activity at 10 µM,HDAC1; [5],83 ± 4%
same,activity at 20 µM,HDAC1; [5],67 ± 4%
same,activity at 40 µM,HDAC1; [5],46 ± 1%
same,activity at 80 µM,HDAC1; [5],26 ± 2%
same,activity at 160 µM,HDAC1; [5],13 ± 1%
same,IC50,HDAC3,30 µM
same,activity at 1.25 µM,HDAC3; [6],100 ± 6%
same,activity at 10 µM,HDAC3; [6],88 ± 2%
same,activity at 20 µM,HDAC3; [6],56 ± 4%
same,activity at 40 µM,HDAC3; [6],42 ± 5%
same,activity at 80 µM,HDAC3; [6],25 ± 1%
same,activity at 160 µM,HDAC3; [6],5 ± 3%
same,Deacetylase activity (%),[1]; 1.0 × 10^−4 M,35 ± 3%
same,Deacetylase activity (%),[1]; 1.25 × 10^−5 M,87 ± 1%
same,Deacetylase activity (%),[1]; 2.0 × 10^−4 M,21 ± 3%
same,Deacetylase activity (%),[1]; 5.0 × 10^−5 M,56 ± 2%
same,IC50,[1],60 ± 1 µM
same,Deacetylase activity (%),[1]; […] 10^−5 M,73 ± 2%
"O=C(CCC(CCCC(=O)Nc1ccccc1)Cc1ccccc1)NO (racemic) [Compound 1f, 4-benzyl-N^1-hydroxy-N^8-phenyloctanediamide]",IC50,HDAC2,32 µM
same,activity at 5 µM,HDAC2; [2],92 ± 4%
same,activity at 10 µM,HDAC2; [2],74 ± 4%
same,activity at 20 µM,HDAC2; [2],60 ± 1%
same,activity at 40 µM,HDAC2; [2],47 ± 1%
same,activity at 80 µM,HDAC2; [2],27 ± 5%
same,activity at 160 µM,HDAC2; [2],20 ± 1%
same,IC50,HDAC6,0.14 µM
same,HDAC6 fold selectivity HDAC1,HDAC6,210 fold
same,HDAC6 fold selectivity HDAC2,HDAC6,270 fold
same,HDAC6 fold selectivity HDAC3,HDAC6,300 fold
same,activity at 0.05 µM,HDAC6; [3],76 ± 5%
same,activity at 0.1 µM,HDAC6; [3],60 ± 4%
same,activity at 0.2 µM,HDAC6; [3],45 ± 5%
same,activity at 0.4 µM,HDAC6; [3],18 ± 4%
same,activity at 5 µM,HDAC6; [3],2.9 ± 0.5%
same,activity at […],HDAC6; [3],90 ± 7%
same,IC50,"HDAC1; potency (IC50) with HDAC1, text, Table 4 value in μM",29000 nM
same,activity at 5 µM,HDAC1; [5],87 ± 4%
same,activity at 10 µM,HDAC1; [5],75 ± 5%
same,activity at 20 µM,HDAC1; [5],58 ± 5%
same,activity at 40 µM,HDAC1; [5],44 ± 2%
same,activity at 80 µM,HDAC1; [5],27 ± 2%
same,activity at 160 µM,HDAC1; [5],16 ± 1%
same,IC50,HDAC3,42 µM
same,activity at 5 µM,HDAC3; [6],90 ± 3%
same,activity at 10 µM,HDAC3; [6],87 ± 4%
same,activity at 20 µM,HDAC3; [6],63 ± 5%
same,activity at 40 µM,HDAC3; [6],55 ± 3%
same,activity at 80 µM,HDAC3; [6],33 ± 2%
same,activity at 160 µM,HDAC3; [6],19 ± 2%
same,Deacetylase activity (%),[1]; 1.0 × 10^−4 M,35 ± 5%
same,Deacetylase activity (%),[1]; 1.25 × 10^−5 M,88 ± 4%
same,Deacetylase activity (%),[1]; 2.0 × 10^−4 M,19 ± 2%
same,Deacetylase activity (%),[1]; 5.0 × 10^−5 M,58 ± 4%
same,IC50,[1],62 ± 1 µM
same,Deacetylase activity (%),[1]; […] 10^−5 M,74 ± 5%
